The results in this text go back to patent EP0320006A2, “Uses of 1,4-dihydropyridines” (LABORATOIRES SYNTEX, priority 1987, dated 1989).

Marks after values point to notes of the source that are not given here.

The subject of one data set is Male CD1 mice. Description: Anticonvulsant activity against pentylenetetrazole (PTZ) induced seizures. To be noted: for % Clonic: incidence of clonic seizures; for % Tonic: incidence of tonic seizures. It is filed as in vivo. The protocol: The amount of test compound needed to prevent convulsions induced by a fixed amount of pentylenetetrazol can then be determined.
(A) Male CD1 mice (Charles River) are randomly divided into groups of at least 20, and treated with 500 µg/Kg of (S,RS)-2,6-dimethyl-3-carbomethoxy-4-(3-nitrophenyl)-5-(3-[4-(2-tetrahydropyran-2-yloxyethyl)-phenoxy]propoxycarbonyl)-1,4-dihydropyridine (the compound is dissolved in 0.1 mL of ethanol and diluted with 99.9 mL saline and injected intraperitoneally) before subcutaneous administration of 100 mg/Kg pentylenetetrazole ("PTZ", a known convulsant) under the following dosing schedules: (A) 15 minutes prior to PTZ administration; (B) 60 minutes prior to PTZ administration; and (C) b.i.d. for three days prior to PTZ administration, a further dose being given on a fourth day 15 minutes prior to PTZ administration. After PTZ administration, the mice are observed for at least 30 minutes, and the incidence of clonic seizures, tonic seizures, and death is noted. The experiment is terminated by pentobarbitone overdose.

Data set [1] concerns CA₁ pyramidal cells in the hippocampus. The experiment in a line: Neuroprotection from ischemic damage: delayed neuronal death after bilateral carotid occlusion. To be noted: then B.I.D. three days post-ischemia. The class given is in vivo, Mongolian gerbils. Here is the method: This experimental test is described in the literature by Kirino, T. Brain Research, 239, 57-69 (1982). A detailed description is set forth in Example 3.
Mongolian gerbils of either sex (50-80 g) are treated with a test compound (or control) either intraperitoneally (IP) at 500 mg/kg 15 minutes prior to induction of ischemia followed by B.I.D. dosing for three days post-ischemia, or orally at 5 mg/kg twice daily for 3 out of 4 days and then 15 minutes prior to cerebral ischemia on the 4th day followed by B.I.D. dosing for three days post-ischemia. To facilitate induction of forebrain ischemia the animals are then anesthetized with halothane (5% in 30:70 oxygen:nitrous oxide) delivered by face mask. Following rapid induction, the halothane is decreased to 1.5-2% and maintained at that level for the remainder of the experiment. The left and right common carotid arteries are exposed in the paratracheal region through a ventral midline cervical skin incision and freed from the accompanying vagosympathetic nerve trunks. A loose ligature is placed around the arteries to facilitate identification at the time of occlusion.
The carotid arteries are then bilaterally occluded for 5 minutes using microvascular clips (Ackland C-2-V, Weiss, London). Blood flow is then restored, the wound dusted with antibiotic powder (Cicatrin, Calmic Medical Division, The Wellcome Foundation Ltd., London), and sutured. The subjects are then caged individually and allowed food and water ad libitum. […]
The extent of neuronal death is determined by counting microscopically (at 40x power) all normal and abnormal cells in five fields per hemisphere of the hippocampal CA₁ subfield from the paramedian area to its junction with CA₂ neurons. The field counts are then summed and the mean percentage of dead cells calculated (n=10 fields per brain). Statistical significance was calculated using the Student's t test for unpaired samples, with significance taken at p less than 0.05.

The subject of another data set is dogs. The experiment in a line: Toxicology: three-month oral dosing. It is filed as in vivo.
[2] abbreviates: schedule A: 500 µg/Kg intraperitoneally 15 minutes prior to PTZ 100 mg/Kg s.c.
Where [3] appears, read: schedule B: 500 µg/Kg intraperitoneally 60 minutes prior to PTZ 100 mg/Kg s.c.
Setting [4] is: schedule C: 500 µg/Kg intraperitoneally b.i.d. for three days, further dose on fourth day 15 minutes prior to PTZ 100 mg/Kg s.c.

As for `COC(=O)C1=C(C)NC(C)=C(C(=O)OCCCOc2ccc(CCOC3CCCCO3)cc2)[C@H]1c1cccc([N+](=O)[O-])c1` (mixture of isomers) [X, (S,RS)-2,6-dimethyl-3-carbomethoxy-4-(3-nitrophenyl)-5-[3-(4-[2-(tetrahydropyran-2-yloxy)ethyl]phenoxy)propoxycarbonyl]-1,4-dihydropyridine], the anticonvulsant activity entry in the data set with Male CD1 mice (PTZ test in mice, statement in words) is on record as “demonstrates anticonvulsant activity”. Besides, the results for the “% Death” value in the data set with Male CD1 mice (setting [2]), with Male CD1 mice (setting [3]) and in the data set with Male CD1 mice (setting [4]) were 38.1* %, 35* % and 60%, respectively. Further, the “% Clonic” value in the data set on Male CD1 mice (setting [2]) is 90.5%; with Male CD1 mice (setting [3]), 80%; with Male CD1 mice (setting [4]), 65** %. Moreover, the “% Tonic” value with Male CD1 mice (setting [2]) was 90.5%; in the data set with Male CD1 mice (setting [3]), 40*** %; in the data set on Male CD1 mice (setting [4]), 55%. For the same compound, the “Percentage abnormal neurone count” value turned out to be 6.6 ± 0.8% in data set [1] (intraperitoneal administration, PEG 300 + water, 500 mg/kg 15 minutes prior to ischemia, 5 minutes occlusion, counted at 72 hours); 5.6 ± 0.3% in data set [1] (intraperitoneal administration, alcoholic vehicle, 500 mg/kg 15 minutes prior to ischemia, 5 minutes occlusion, counted at 72 hours); 58.0 ± 5.0% in data set [1] (oral, PEG 300 + vehicle, 5 mg/kg twice daily 3 out of 4 days, 15 minutes prior to ischemia on 4th day). For the same compound, the pathological change result in the data set with dogs (oral dosing of dogs for three months at 1.5 and 10 mg/kg/day) is listed as “did not produce any pathological change”. Moreover, in the data set on dogs (oral dosing of dogs for three months, all doses), the urine analysis result is “normal”. In addition, the Ophthalmoscopy entry in the data set with dogs (oral dosing of dogs for three months, all doses, throughout the study) was “remained normal”.
